Test results as given in PubChem BioAssay AID1645866 (Buhrlage Lab, Dana-Farber Cancer Institute and Novartis …, 2021).
Active and inactive are the calls of the source.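 The calls were made as follows: active = in confirmatory dose-response testing, peak deubiquitinase inhibition of 30% or more; inactive = the rest.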

Each molecule was assayed against Ubiquitin carboxyl-terminal hydrolase 28 (Homo sapiens) (UniProt Q96RU2) (assay: Concentration-response biochemical assay confirming initial hits as inhibitors of ubiquitin-specific protease 28 (AID 1645866)). Conditions: purified USP28, ubiquitin-rhodamine fluorescence, 30 min.
Chain of Ubiquitin carboxyl-terminal hydrolase 28 (Homo sapiens) (Q96RU2 whole entry, looked up): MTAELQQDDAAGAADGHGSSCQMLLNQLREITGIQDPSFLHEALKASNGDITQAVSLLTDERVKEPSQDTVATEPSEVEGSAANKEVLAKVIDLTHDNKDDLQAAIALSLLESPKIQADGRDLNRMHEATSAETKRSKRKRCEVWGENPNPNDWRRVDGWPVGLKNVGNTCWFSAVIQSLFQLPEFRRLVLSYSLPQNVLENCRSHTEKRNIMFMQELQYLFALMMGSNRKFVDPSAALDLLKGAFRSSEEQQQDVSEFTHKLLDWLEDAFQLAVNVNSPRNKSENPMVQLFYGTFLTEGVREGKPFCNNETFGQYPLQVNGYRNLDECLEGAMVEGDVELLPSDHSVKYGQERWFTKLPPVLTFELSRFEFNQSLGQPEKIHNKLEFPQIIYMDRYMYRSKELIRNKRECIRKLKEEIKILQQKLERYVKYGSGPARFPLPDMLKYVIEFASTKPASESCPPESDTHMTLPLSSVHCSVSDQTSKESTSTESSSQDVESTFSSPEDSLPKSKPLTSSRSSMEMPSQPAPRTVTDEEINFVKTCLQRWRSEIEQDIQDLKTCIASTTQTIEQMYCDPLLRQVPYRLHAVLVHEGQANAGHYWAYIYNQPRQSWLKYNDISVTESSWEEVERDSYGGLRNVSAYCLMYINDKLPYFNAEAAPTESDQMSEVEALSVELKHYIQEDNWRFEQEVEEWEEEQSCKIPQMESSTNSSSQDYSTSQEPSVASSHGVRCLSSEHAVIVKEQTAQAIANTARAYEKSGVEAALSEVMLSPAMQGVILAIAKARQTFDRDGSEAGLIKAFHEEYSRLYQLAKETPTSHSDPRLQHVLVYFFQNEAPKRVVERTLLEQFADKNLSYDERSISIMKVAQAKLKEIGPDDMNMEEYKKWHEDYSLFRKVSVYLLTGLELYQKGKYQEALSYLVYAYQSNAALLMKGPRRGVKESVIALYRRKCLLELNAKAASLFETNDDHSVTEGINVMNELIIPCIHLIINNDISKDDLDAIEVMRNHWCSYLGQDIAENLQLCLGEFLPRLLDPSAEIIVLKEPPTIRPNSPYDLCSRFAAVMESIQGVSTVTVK

Row | Structure (SMILES) | IC50
1 | O=C(CSc1nnc2n1CCCCC2)Nc1ccc2[nH]c(=O)[nH]c2c1 | 34.8 µM
2 | CN1CCN(C(=O)c2cc(-c3ccn(CC4CC4)n3)n3ccccc23)CC1 | > 50 µM (inactive)
3 | Cc1ccccc1Cn1ccc2ccn(Cc3cccnc3)c2c1=O | 10.4 µM
4 | COc1ccccc1CNC(=O)c1c(O)c2cnn(-c3cccc(C)c3)c2[nH]c1=O | 9.36 µM
5 | Fc1ccc(Nc2nc(Nc3cccc(F)c3)nc3nccnc23)cc1 | > 50 µM (inactive)
6 | COc1cccc(C(=O)Nc2ccc(-n3cnnn3)cc2)c1 | 21.7 µM
7 | COc1ccc(-c2cc3nc([C@H](C)NC(=O)Cc4ccccc4C)nn3cn2)cc1 | 2.61 µM
8 | O=C(CC1C(=O)N(Cc2ccccc2)c2nc3ccccc3n21)NCCc1ccccc1 (stereo not given) | 15.9 µM
9 | O=C(NCc1ccc(Cl)cc1)c1ccc(N2CCCS2(=O)=O)cc1 | > 50 µM (inactive)
10 | O=C(Nc1ccc2c(c1)OCO2)c1[nH]nc2c1CCc1ccccc1-2 | 8.02 µM
11 | O=C(CSc1ccc(-c2cccc([N+](=O)[O-])c2)nn1)Nc1cccc(F)c1 | 2.23 µM
12 | CC(=O)c1ccc(NC(=O)C[n+]2cc(-c3ccc(Cl)cc3)n3c2CCC3)cc1 | 31.9 µM
13 | CCn1c(=N)n(CCOc2ccc(F)cc2)c2ccccc21 | 0.588 µM
14 | Cc1ccc(-n2cc(C(=O)NCc3cccnc3)nn2)cc1C | 16.6 µM
15 | Cc1c(C)n(-c2ccccc2)c2ncn(CC(=O)N(C)Cc3ccccc3)c(=O)c12 | > 50 µM (inactive)
16 | CCN(C(=O)c1cc2c(Cl)nc3ccccc3c2s1)c1ccccc1F | > 50 µM (inactive)
17 | CCC[C@H]1O[C@@H]2CC(=O)O[C@@H]2C2=C1C(=O)c1c(O)cccc1C2=O | 14.3 µM
18 | COc1ccccc1NC(=O)Cn1cc(C(=O)c2ccc(C)cc2)c(=O)c2ccccc21 | 21.8 µM
19 | COc1ccc(S(=O)(=O)N2CCc3ccccc32)cc1C(=O)Nc1ccc2[nH]c(=O)[nH]c2c1 | 9.13 µM
20 | Cc1ccc(NC(=O)c2ccn(COc3ccc(F)cc3)n2)nc1 | 33.3 µM
21 | O=C(/C=C/c1ccc(F)cc1)N1CCC(Cc2ccccc2)CC1 | 47.4 µM
22 | N#Cc1c(SCCO)nc(N2CCCC2)c2c1CCCC2 | 6.47 µM
23 | CC1CCc2c(sc3nc(CC#N)[nH]c(=O)c23)C1 (stereo not given) | > 50 µM (inactive)
24 | Cn1cc(-c2noc(Cc3cccc(C(F)(F)F)c3)n2)ccc1=O | 12.2 µM
25 | CCc1noc(-c2ccc(OCC(=O)Nc3ccc(C)cc3C)cc2)n1 | 33.7 µM

Row | Structure (SMILES) | IC50
26 | Cc1ccc(-n2nnc(C(=O)NC3CCCCC3)c2N)cc1 | 27.2 µM
27 | CC1CC(=O)c2c(cc3c(-c4c(O)cc(O)c5c(O)c6c(cc45)OC(C)CC6=O)c(O)cc(O)c3c2O)O1 (stereo not given) | 20.8 µM
28 | Cc1nnc(C(=O)Nc2ccc(C(=O)NCc3ccccc3C)cc2)s1 | 16.2 µM
29 | CCc1ccc2c(c1)[C@]1(C(=O)N2)[C@@H]2C(=O)N(c3ccc(Cl)cc3Cl)C(=O)[C@@H]2[C@@H]2CCCN21 | > 50 µM (inactive)
30 | COc1ccc(NC(=O)c2nnn(-c3ccccc3)c2C)cc1OC | 11.6 µM
31 | Cc1nc(NCc2ccccn2)c2cc(-c3ccccc3)sc2n1 | 23.7 µM
32 | Cc1ccccc1NC(=O)C(C)n1c(=O)cc(-c2ccccc2)c2c(C)nn(C)c21 (stereo not given) | 7.75 µM
33 | O=C(/C=C/c1cnc2ccccc2c1)NCc1ccccc1 | 22.6 µM
34 | CCOc1ccccc1C(=O)NCC(=O)OC(C(=O)c1c[nH]c2ccccc12)c1ccccc1 (stereo not given) | > 50 µM (inactive)
35 | CCOc1ccc(NC(=O)COc2cccc3c2CCN(CC)C3=O)cc1 | 4.24 µM
36 | Cn1c(CN2CCCCCC2)nc2cc(NC(=O)c3ccccc3)ccc21 | > 50 µM (inactive)
37 | Cc1ccc2nc(NC(=O)CSc3nnc(-c4ccncc4)n3C3CC3)sc2c1 | 4.17 µM
38 | COc1ccccc1NC(=O)Cn1cc(C(=O)c2ccc(C)cc2)c(=O)c2cc(Cl)ccc21 | 11.3 µM
39 | Cc1ccc(CNC(=O)c2cccc(N3C(=O)N4CCc5c([nH]c6ccccc56)[C@@]4(C)C3=O)c2)cc1 | 44 µM
40 | CN=C(N)NCCC/C=C/CCCC(C)CC(C)C1OC(=O)/C=C/C(C)C(O)CC(O)C(C)C(O)CCC(C)C(O)CC2(O)OC(CC(OC(=O)CC(=O)O)CC(O)CC(O)C(C)C(O)/C=C/C1C)CC(O)C2O (stereo not given) | 19.8 µM
41 | Cc1ccc2nc(CNC(=O)c3ccccc3-c3nc(-c4ccc(F)cc4)no3)[nH]c2c1 | 39 µM
42 | N#Cc1ccccc1Cn1c(=O)n(CCCCC(=O)NCCc2ccccc2)c(=O)c2ccccc21 | 19.6 µM
43 | CCOc1ccc(-n2c(SCC(=O)N3CC(=O)Nc4ccccc43)nnc2-c2ccc(OC)cc2)cc1 | 25.2 µM
44 | CC1CS(=O)(=O)N(c2ccc(C(=O)Nc3ccc4c(c3)OCCO4)cc2)C1=O (stereo not given) | 7.25 µM
45 | O=C(NCc1ccc(F)cc1)N1CCC2(C1)Nc1cccnc1NC2=NCc1ccccc1 (stereo not given) | > 50 µM (inactive)
46 | O=C(CSc1nnc(Cn2cnc3ccccc32)o1)Nc1ccc([N+](=O)[O-])cc1 | 20.3 µM
47 | COc1ccc(CCN2COc3c(cc(Cl)c4cccnc34)C2)cc1OC | 14.1 µM
48 | COc1ccc(NC(=O)CC(=O)c2ccc([N+](=O)[O-])cc2)cc1S(=O)(=O)Nc1ccc(Cl)cc1 | 33.3 µM
49 | CC(C)c1nc2sc3c(N(CCO)CCO)ncnc3c2c2c1COC(C)(C)C2 | > 50 µM (inactive)
50 | Fc1cccc(Cn2cc(-c3noc(-c4ccncc4)n3)nn2)c1 | 24.9 µM

Row | Structure (SMILES) | IC50
51 | COc1ccc(C(=O)Nc2ccc3c(c2)C(=O)N(C)c2ccccc2O3)cc1 | 8.9 µM
52 | CC(=O)c1cccc(NC(=O)c2ccc(CN(c3ccc(C)c(C)c3)S(C)(=O)=O)cc2)c1 | 2.2 µM
53 | COCC(=O)Nc1cc(F)c2nc(N3CCOCC3)ccc2c1 | > 50 µM (inactive)
54 | COc1cccc(NC(=O)c2nnn(-c3ccccc3)n2)c1 | 7.33 µM
55 | CCCCN1CC(C(=O)Nc2ccc(C(=O)Nc3ccc(Cl)cc3)cc2)CC1=O (stereo not given) | 10.5 µM
56 | Cc1ccc(OCCn2c(=N)n(C(C)C)c3ccccc32)cc1 | 2.13 µM
57 | CN(C)C1CCN(C(=O)c2cc(-c3ccn(-c4ccccc4)n3)n3ccccc23)CC1 | > 50 µM (inactive)
58 | O=c1c2ccccc2c(-c2nc(-c3ccncc3)no2)cn1-c1ccccc1 | 2.56 µM
59 | Cc1ccc2c(=O)c3c([nH]c2c1C)CCN(CC(=O)NCc1ccccc1)C3 | > 50 µM (inactive)
60 | CCN(Cc1ccccc1)S(=O)(=O)c1ccc(C(=O)Nc2ccc3c(c2)OCCO3)cc1 | 5.98 µM
61 | Cc1ncncc1C(=O)N1CCCC(C)(c2ncc(Cc3cccc(F)c3)o2)C1 (stereo not given) | > 50 µM (inactive)
62 | CNc1nc2c(c(=O)n1Cc1ccccc1)CN(C(=O)c1ccc(CN)cc1)CC2 | 48.4 µM
63 | O=C(Cn1c(=O)n(CC(=O)NC2CCCC2)c(=O)c2ccccc21)Nc1cc(Cl)ccc1Cl | 4.52 µM
64 | O=c1ccc(-c2noc(Cc3cccc(Cl)c3)n2)c[nH]1 | 0.0563 µM
65 | Cc1nc(-c2ccccc2F)sc1C(=O)Nc1cccnc1 | 26.8 µM
66 | O=C(COc1ccc2c(c1)CCC2)Nc1ccc2c(c1)CCC2 | 37.7 µM
67 | COc1cccc(N2CCN(C(=O)C3CCN(c4nc(NC(C)=O)ns4)CC3)CC2)c1 | > 50 µM (inactive)
68 | O=[N+]([O-])c1cccc(-c2noc(CSc3ccccc3)n2)c1 | 3.72 µM
69 | CCOC(=O)c1ccc(S(=O)(=O)N2CCC(C(=O)OC(C)C(=O)Nc3cccc([N+](=O)[O-])c3)CC2)cc1 (stereo not given) | 9.35 µM
70 | O=C(NC1CCN(c2nc(-c3cccnc3)nc3ccccc23)CC1)c1cccnc1 | 15.1 µM
71 | O=C(NCCN1CCCC1)C1CCN(c2cnc(N3CCCCC3)nc2)CC1 | < 0.05 µM
72 | COc1cccc(NC(=O)c2ccc(F)cc2Cl)c1 | 18.7 µM
73 | COc1ccc(C)cc1NC(=O)C1CC(=O)Nc2nc(SCc3ccccc3)nn21 (stereo not given) | 14.7 µM
74 | N#Cc1ccc(Cc2ncc(C(F)(F)F)cc2Cl)s1 | 8.21 µM
75 | O=C(CN1C=NC2=NS(=O)(=O)c3ccccc3N21)Nc1cc(F)ccc1F | 28 µM

Row | Structure (SMILES) | IC50
76 | COc1ccc(NC(=O)CN2C(=O)c3ccccc3Sc3ccc(C(=O)N4CCCC4)cc32)cc1OC | 34.2 µM
77 | CC1(C)Cc2c(c(-c3ccco3)nc3sc4c(SCCCc5ccccc5)ncnc4c23)CO1 | 34.9 µM
78 | CS(=O)(=O)N1CCCc2cc(C(=O)Nc3ccc(Oc4ccccc4)cc3)ccc21 | 12.5 µM
79 | COc1cc2c(c3oc4cccc(O)c4c(=O)c13)C1C=COC1O2 (stereo not given) | 36.7 µM
80 | CC(=O)N1Cc2ccccc2CC2(CCCN(CC3CCOCC3)C2)C1 (stereo not given) | > 50 µM (inactive)
81 | O=C(NCc1ccc(-c2nc3cnccc3o2)cc1)c1ccccc1Br | > 50 µM (inactive)
82 | COc1ccc(-c2cc(-c3ccc(O)cc3)nc(N)c2C#N)cc1OC | 32.6 µM
83 | Cc1ccccc1C(=O)OCCN1C(=O)c2cccc3c(N4CCCCC4)ccc(c23)C1=O | > 50 µM (inactive)
84 | O=C(NCCCc1nc2ccccc2n1Cc1c(Cl)cccc1Cl)c1ccco1 | 25.3 µM
85 | C[C@@]12c3ccc4c(c3C(=O)c3occ(c31)C(O)C[C@H]2O)CCC4=O (stereo not given in full) | > 50 µM (inactive)
86 | COC(=O)[C@]1(O)O[C@@]2(C(=O)OC)c3c(oc4cc(C)cc(O)c4c3=O)[C@H]3c4c(oc5cc(C)cc(O)c5c4=O)C[C@H]1[C@H]32 | > 50 µM (inactive)
87 | CCOc1ccc(NC(=O)Cn2cc(C(=O)c3ccc(Cl)cc3)c(=O)c3cc(OC)ccc32)cc1 | 4.32 µM
88 | CCOc1ccccc1NC(=O)Cn1c(=O)n(CCCC(=O)NCc2ccc(C)cc2)c(=O)c2sccc21 | 1.98 µM
89 | Cn1c(SCc2ccccc2)nnc1-c1csc(-c2ccccc2)n1 | 31.3 µM
90 | COc1c2nc3ccccc3oc-2cc(=O)c1OC | > 50 µM (inactive)
91 | O=C(NCc1ccc2c(c1)OCO2)c1nn(C23CC4CC(CC(C4)C2)C3)cc1[N+](=O)[O-] | > 50 µM (inactive)
92 | O=C(CSc1nncc2ccccc12)Nc1ccc2c(c1)OCO2 | 37.5 µM
93 | CCOc1cccc(NC(=O)c2ccc(S(=O)(=O)N3CCc4ccccc4C3)cc2)c1 | 44.3 µM
94 | Cc1ccc2[nH]c(=O)c(-c3nc4ccc(C)cn4c3NCc3ccc(F)cc3)cc2c1 | 1.93 µM
95 | CC1CCN(S(=O)(=O)c2ccc(C(=O)Nc3ccc(S(N)(=O)=O)cc3)cc2)CC1 | 30.1 µM
96 | CC(=O)O[C@H]1[C@]2(O)C[C@]34SS[C@](CO)(C(=O)N3[C@@H]2C[C@@]12O[C@@H](C)C(C)(C)C2=O)N(C)C4=O | > 50 µM (inactive)
97 | CCC1(C)Cc2c(sc3nc(SCC(=O)Nc4ccc(C(C)=O)cc4)nc(N)c23)CO1 (stereo not given) | 17.9 µM
98 | Cc1ccc(C(=O)NCc2ccc(C(=O)Nc3ccc(C)c(C)c3)o2)cc1 | 28.2 µM
99 | COc1cccc(CNC(=O)C2=Cc3cccc(OC)c3OC2)c1 | 8.65 µM
100 | COc1ccc(-c2nc(SCC(=O)Nc3ccc(Cl)cc3F)n[nH]2)cc1 | > 50 µM (inactive)
